From patent publication US20240132431A1, “METHOD FOR ALKYLATING ACIDIC FUNCTIONAL GROUP” (Chugai Seiyaku Kabushiki Kaisha, priority 2021, published 2024)
Values belong to the compound of their own block, whether it stands above or below them.

Target: T1, Bcl-2 protein (Recombinant Human Bcl-2 Protein) (Homo sapiens, UniProt P10415)
T1 construct: purchased Novus NBP2-34889
Assay: Binding evaluation of mixture library compounds to Bcl-2 using AS-MS (affinity selection mass spectrometry)
Details: for ASMS ratio (%) n = 1: replicate n = 1; for ASMS ratio (%) n = 1 / ASMS ratio (%) n = 2: ASMS Ratio(%)=(A−C)/B×100; for ASMS ratio (%) n = 2: replicate n = 2
In short: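 Affinity selection MS: Bcl-2 20 μM + 1200-cpd mixture, […]/cpd, Tris pH 7.4 buffer w/ Tween-20, DTT; 1 h 23° C dark; P-2 spin SEC; MeCN/MeOH extraction; RP LC/MS. ASMS Ratio(%) = (A−C)/B×100.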

[1] = AS-MS, mixture of 1200 compounds, Bcl-2
[2] = AS-MS on the mixture of 1200 library compounds

T1 sequence (P10415 whole entry): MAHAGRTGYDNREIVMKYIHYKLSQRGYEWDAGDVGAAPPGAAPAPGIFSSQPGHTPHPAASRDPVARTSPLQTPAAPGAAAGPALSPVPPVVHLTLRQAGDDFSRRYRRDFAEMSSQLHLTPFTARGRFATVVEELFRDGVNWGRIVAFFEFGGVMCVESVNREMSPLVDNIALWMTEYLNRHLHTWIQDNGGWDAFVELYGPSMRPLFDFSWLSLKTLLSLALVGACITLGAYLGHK

Compound: CCOc1cccc(-c2ccc(C(=O)N3CCN(c4ccc(C(=O)NS(=O)(=O)CC56CC7CC(CC(C7)C5)C6)nn4)CC3)cc2F)c1 [B2A005-01, N-(1-Adamantylmethylsulfonyl)-6-[4-[4-(3-ethoxyphenyl)-3-fluorobenzoyl]piperazin-1-yl]pyridazine-3-carboxamide]
ASMS ratio (%) n = 1 (AS-MS, mixture library, Bcl-2): 4.7%
ASMS ratio (%) n = 2 (AS-MS, mixture library, Bcl-2): 12.4%

Compound: CCOc1cncc(-c2cnn(-c3cc(C(=O)N4CCN(c5ccc(C(=O)NCC(F)(F)F)cc5)CC4)cc(C(F)(F)F)c3)c2)c1 [B1K044-01, 4-[4-[3-[4-(5-Ethoxypyridin-3-yl)pyrazol-1-yl]-5-(trifluoromethyl)benzoyl]piperazin-1-yl]-N-(2,2,2-trifluoroethyl)benzamide]
ASMS ratio (%) n = 1 [1]: 2.6%
ASMS ratio (%) n = 2 [1]: 1.0%

Compound: 4-[4-[3-(5-Ethoxypyridin-3-yl)-5-(trifluoromethyl)benzoyl]piperazin-1-yl]-N-propylbenzamide [B1M008-01]
ASMS ratio (%) n = 2 [1]: 0.0%

Compound: CCOc1cncc(-c2ccc(CN3CCN(c4ccc(C(=O)NS(=O)(=O)C(C)(C)C)nn4)CC3)c(CC)c2)c1 [B2L076-01, N-tert-Butylsulfonyl-6-[4-[[4-(5-ethoxypyridin-3-yl)-2-ethylphenyl]methyl]piperazin-1-yl]pyridazine-3-carboxamide]
ASMS ratio (%) (n = 1): 1.8%
ASMS ratio (%) (n = 2): −0.3%

Compound: CCOc1cncc(-c2ccccc2CCC(=O)N2CCN(c3ccc(C(=O)NS(=O)(=O)c4ccc(NCCSc5ccccc5)c([N+](=O)[O-])c4)cc3)CC2)c1 [B2Q034-01, 4-[4-[3-[2-(5-Ethoxypyridin-3-yl)phenyl]propanoyl]piperazin-1-yl]-N-[3-nitro-4-(2-phenylsulfanylethylamino)phenyl]sulfonylbenzamide]
ASMS ratio (%) n = 1 (AS-MS, mixture library, Bcl-2): 0.0%
ASMS ratio (%) n = 2 (AS-MS, mixture library, Bcl-2): 0.0%

Compound: CCOc1cncc(-c2cc(CN3CCN(c4ccc(C(=O)Nc5ccc(OC)cc5)nn4)CC3)cc(OC(F)(F)F)c2)c1 [B1O090-01, 6-[4-[[3-(5-Ethoxypyridin-3-yl)-5-(trifluoromethoxy)phenyl]methyl]piperazin-1-yl]-N-(4-methoxyphenyl)pyridazine-3-carboxamide]
ASMS ratio (%) n = 1 [2]: 3.3%
ASMS ratio (%) n = 2 [2]: −2.0%

Compound: CCOc1cccc(C#Cc2ccccc2CN2CCN(c3ccc(C(=O)NS(C)(=O)=O)nn3)CC2)c1 [B2I095-01, 6-[4-[[2-[2-(3-Ethoxyphenyl)ethynyl]phenyl]methyl]piperazin-1-yl]-N-methylsulfonylpyridazine-3-carboxamide]
ASMS ratio (%) (n = 1): 0.0%
ASMS ratio (%) (n = 2): 0.0%

Compound: CCOc1cncc(-c2csc(C(=O)N3CCN(c4ccc(C(=O)N(CC)CC)cc4)CC3)c2)c1 [B4J024-01, 4-[4-[4-(5-Ethoxypyridin-3-yl)thiophene-2-carbonyl]piperazin-1-yl]-N,N-diethylbenzamide]
ASMS ratio (%) n = 1 [2]: −0.6%
ASMS ratio (%) n = 2 [2]: 6.8%

Compound: CCOc1cncc(-c2cc(CN3CCN(c4ccc(C(=O)NS(=O)(=O)CCC(F)(F)F)nn4)CC3)cc(OC(C)C)c2)c1 [B2N084-01, 6-[4-[[3-(5-Ethoxypyridin-3-yl)-5-propan-2-yloxyphenyl]methyl]piperazin-1-yl]-N-(3,3,3-trifluoropropylsulfonyl)pyridazine-3-carboxamide]
ASMS ratio (%) (n = 1): 0.0%
ASMS ratio (%) (n = 2): 0.0%

Compound: CCOc1cccc(C#Cc2ccccc2C(=O)N2CCN(c3ccc(C(=O)NS(=O)(=O)C(C)(C)C)cc3)CC2)c1 [B2L029-01, N-tert-Butylsulfonyl-4-[4-[2-[2-(3-ethoxyphenyl)ethynyl]benzoyl]piperazin-1-yl]benzamide]
ASMS ratio (%) (n = 1): 0.0%

Compound: CCOc1cccc(-c2ccc(C(=O)N3CCN(c4ccc(C(=O)NS(C)(=O)=O)nn4)CC3)cc2C)c1 [B2I003-01, 6-[4-[4-(3-Ethoxyphenyl)-3-methylbenzoyl]piperazin-1-yl]-N-methylsulfonylpyridazine-3-carboxamide]
ASMS ratio (%) n = 1 (AS-MS, mixture library, Bcl-2): 0.0%
ASMS ratio (%) n = 2 (AS-MS, mixture library, Bcl-2): 0.0%

Compound: 4-[4-[4-(5-Ethoxypyridin-3-yl)-3-methylbenzoyl]piperazin-1-yl]-N-propylbenzamide [B1M039-01]
ASMS ratio (%) n = 1 [1]: 2.3%
ASMS ratio (%) n = 2 [1]: −0.6%

Compound: CCOc1cncc(-c2cc(CN3CCN(c4ccc(C(=O)N(CC)CC)cc4)CC3)cc(OCC)c2)c1 [B4J056-01]
ASMS ratio (%) n = 1 [2]: −1.4%
ASMS ratio (%) n = 2 [2]: −1.5%

Compound: CCOc1cccc(-c2ccc(C(=O)N3CCN(c4ccc(C(=O)NS(=O)(=O)CCC(F)(F)F)nn4)CC3)cc2C)c1 [B2N003-01, 6-[4-[4-(3-Ethoxyphenyl)-3-methylbenzoyl]piperazin-1-yl]-N-(3,3,3-trifluoropropylsulfonyl)pyridazine-3-carboxamide]
ASMS ratio (%) (n = 1): 0.0%
ASMS ratio (%) (n = 2): 0.0%

Compound: CCOc1cncc(-c2ccccc2CN2CCN(c3ccc(C(=O)NS(=O)(=O)C(C)(C)C)cc3)CC2)c1 [B2L046-01, N-tert-Butylsulfonyl-4-[4-[[2-(5-ethoxypyridin-3-yl)phenyl]methyl]piperazin-1-yl]benzamide]
ASMS ratio (%) (n = 1): 0.0%
ASMS ratio (%) (n = 2): 0.0%

Compound: CCOc1cncc(C#Cc2ccccc2CN2CCN(c3ccc(C(=O)NCC(F)(F)F)cc3)CC2)c1 [B1K070-01, 4-[4-[[2-[2-(5-Ethoxypyridin-3-yl)ethynyl]phenyl]methyl]piperazin-1-yl]-N-(2,2,2-trifluoroethyl)benzamide]
ASMS ratio (%) n = 1 [1]: 0.0%
ASMS ratio (%) n = 2 [1]: 0.0%

Compound: CCOc1cncc(C#Cc2ccccc2CN2CCN(c3ccc(C(=O)NCC45CC6CC(CC(C6)C4)C5)nn3)CC2)c1 [B1A096-01, N-(1-Adamantylmethyl)-6-[4-[[2-[2-(5-ethoxypyridin-3-yl)ethynyl]phenyl]methyl]piperazin-1-yl]pyridazine-3-carboxamide]
ASMS ratio (%) n = 1 [1]: 0.0%
ASMS ratio (%) n = 2 [1]: 7.4%

Compound: CCOc1cccc(-c2ccc(C(=O)N3CCN(c4ccc(C(=O)NCC(F)(F)F)cc4)CC3)cc2C)c1 [B1K025-01, 4-[4-[4-(3-Ethoxyphenyl)-3-methylbenzoyl]piperazin-1-yl]-N-(2,2,2-trifluoroethyl)benzamide]
ASMS ratio (%) n = 1 [1]: 0.3%
ASMS ratio (%) n = 2 [1]: −0.8%

Continued, values first:

ASMS ratio (%) n = 1 (AS-MS, mixture library, Bcl-2): −2.1%
ASMS ratio (%) n = 2 (AS-MS, mixture library, Bcl-2): 0.6%
Compound: CCOc1cccc(-c2csc(CN3CCN(c4ccc(C(=O)N(CC)CC)nn4)CC3)c2)c1 [B4J093-01]

ASMS ratio (%) n = 1 (AS-MS, mixture library, Bcl-2): 8.8%
ASMS ratio (%) n = 2 (AS-MS, mixture library, Bcl-2): 11.0%
Compound: CCOc1cccc(C#Cc2ccccc2CN2CCN(c3ccc(C(=O)NS(=O)(=O)c4ccc(NCCSc5ccccc5)c([N+](=O)[O-])c4)cc3)CC2)c1 [B2Q069-01]

ASMS ratio (%) n = 1 (AS-MS, mixture library, Bcl-2): 15.6%
ASMS ratio (%) n = 2 (AS-MS, mixture library, Bcl-2): −17.9%
Compound: CCOc1cccc(-c2cc(CN3CCN(c4ccc(C(=O)NS(=O)(=O)c5ccc(NCCSc6ccccc6)c([N+](=O)[O-])c5)cc4)CC3)cc(C(F)(F)F)c2)c1 [B2Q061-01, 4-[4-[[3-(3-Ethoxyphenyl)-5-(trifluoromethyl)phenyl]methyl]piperazin-1-yl]-N-[3-nitro-4-(2-phenylsulfanylethylamino)phenyl]sulfonylbenzamide]

ASMS ratio (%) n = 1 [2]: 7.3%
ASMS ratio (%) n = 2 [2]: −8.8%
Compound: CCOc1cncc(-c2ccc(CN3CCN(c4ccc(C(=O)N(C)CC56CC7CC(CC(C7)C5)C6)cc4)CC3)cc2C)c1 [B3A048-01, N-(1-Adamantylmethyl)-4-[4-[[4-(5-ethoxypyridin-3-yl)-3-methylphenyl]methyl]piperazin-1-yl]-N-methylbenzamide]

ASMS ratio (%) n = 1 [2]: 8.4%
ASMS ratio (%) n = 2 [2]: −15.2%
Compound: CCOc1cccc(C#Cc2cncc(C(=O)N3CCN(c4ccc(C(=O)N(C)CC56CC7CC(CC(C7)C5)C6)cc4)CC3)c2)c1 [B3A031-01, N-(1-Adamantylmethyl)-4-[4-[5-[2-(3-ethoxyphenyl)ethynyl]pyridine-3-carbonyl]piperazin-1-yl]-N-methylbenzamide]

ASMS ratio (%) n = 1 (AS-MS, mixture library, Bcl-2): 0.0%
ASMS ratio (%) n = 2 (AS-MS, mixture library, Bcl-2): 0.0%
Compound: CCOc1cncc(-c2ccc(CN3CCN(c4ccc(C(=O)N(CC)CC)nn4)CC3)cc2C)c1 [B4J074-01, 6-[4-[[4-(5-Ethoxypyridin-3-yl)-3-methylphenyl]methyl]piperazin-1-yl]-N,N-diethylpyridazine-3-carboxamide]

ASMS ratio (%) (n = 1): 5.1%
ASMS ratio (%) (n = 2): 7.8%
Compound: CCOc1cncc(-c2cc(C(=O)N3CCN(c4ccc(C(=O)NS(=O)(=O)c5ccc(NCCSc6ccccc6)c(C(F)(F)F)c5)nn4)CC3)cc(C(F)(F)F)c2)c1 [B2R018-01, 6-[4-[3-(5-Ethoxypyridin-3-yl)-5-(trifluoromethyl)benzoyl]piperazin-1-yl]-N-[4-(2-phenylsulfanylethylamino)-3-(trifluoromethyl)phenyl]sulfonylpyridazine-3-carboxamide]

ASMS ratio (%) n = 1 [2]: −0.9%
ASMS ratio (%) n = 2 [2]: 4.4%
Compound: CCOc1cncc(-c2cc(CN3CCN(c4ccc(C(=O)N(C)CC56CC7CC(CC(C7)C5)C6)nn4)CC3)cc(OCC)c2)c1 [B3A082-01, N-(1-Adamantylmethyl)-6-[4-[[3-ethoxy-5-(5-ethoxypyridin-3-yl)phenyl]methyl]piperazin-1-yl]-N-methylpyridazine-3-carboxamide]

ASMS ratio (%) n = 1 (AS-MS, mixture library, Bcl-2): 0.0%
ASMS ratio (%) n = 2 (AS-MS, mixture library, Bcl-2): 0.0%
Compound: CCOc1cncc(-c2cc(CN3CCN(c4ccc(C(=O)N(CC)CC)nn4)CC3)cc(C(F)(F)F)c2)c1 [B4J088-01]

ASMS ratio (%) n = 1 (AS-MS, mixture library, Bcl-2): 0.0%
ASMS ratio (%) n = 2 (AS-MS, mixture library, Bcl-2): 0.0%
Compound: CCOc1cccc(-c2ccc(CN3CCN(c4ccc(C(=O)NS(=O)(=O)c5ccc(NCCSc6ccccc6)c([N+](=O)[O-])c5)nn4)CC3)c(CC)c2)c1 [B2Q075-01, 6-[4-[[4-(3-Ethoxyphenyl)-2-ethylphenyl]methyl]piperazin-1-yl]-N-[3-nitro-4-(2-phenylsulfanylethylamino)phenyl]sulfonylpyridazine-3-carboxamide]
